# What was measured:
# [1] = test system: tomato flavor intensity (consumer panel); assay: Tomato consumer taste panel: overall tomato flavor intensity (gLMS) versus fruit chemical content; assay type: in vivo, human
# Experimental: (§1) Sensory analysis. Fully ripe fruit were harvested, and used for taste panels. A random subset of fruit was used for biochemical analysis. Three biological replicates, each consisting of 2-20 fruit (depending on fruit size), were assayed for each variety. […] Panelists were between the ages of 18 and 78 with a median age of 22. […] An average of 85 (range of 66-95) of these panelists evaluated between 4-6 varieties in a session. All panelists went through a training session to familiarize them with the scaling and procedures. Tomatoes were sliced into wedges (or in halves for grape/cherry types) and each panelist was given two pieces for evaluation. Panelists took a bite of each sample, chewed and swallowed it, and rated overall liking and liking for texture. They then rated the perceived intensities of sweetness, sourness, saltiness, umami sensation, bitterness and overall tomato flavor. They were free to take as many bites as necessary to complete the assessments. They were instructed to take a bite of an unsalted cracker and a sip of water between samples. Samples were presented to the panelists in a randomized order. Hedonic ratings used the hedonic gLMS. This scale assesses the liking for tomatoes in the context of all pleasure/displeasure experiences: 0=neutral, −100=strongest disliking of any kind experienced, and +100=strongest liking of any kind experienced. Sensory intensity ratings used the gLMS (7, 8, 19).This scale assesses taste and flavor sensations in the context of all sensory experience (7): 0=no sensation, 100=strongest sensation of any kind experienced. Both scales were devised to provide valid comparisons across subjects.
# (§2) Statistical analysis. The 68 chemical compounds measured in this experiment were divided into six groups based upon biochemical properties: sugars, branched chain amino acids, lipids, carotenoids, phenolics, and acids. A small number of compounds for which biosynthetic pathways are not established were assigned to one of the six classes based upon their correlations with other classified compounds. All pairwise correlations among the set of 68 compounds were calculated. Correlation coefficients were sorted using Modulated Modularity Clustering (MMC) (9) as a visual aid for identifying compounds that are closely related in this sample (FIG. 1; Table 4). Biochemical groups were examined for compounds within the group that were highly correlated and compounds that were upstream in the relevant metabolic pathways were preferentially selected.
# (§3) All analyses were performed in SAS v 9.2.
# [2] = test system: perceived sweetness of tomato fruit (consumer panel); assay: Tomato consumer taste panel: perceived sweetness (gLMS) regressed on fruit chemical content; assay type: in vivo, human; settings: tomato
# Experimental: as §1, §2, §3
# In conducting the multiple regression analysis on the tomato data set, the independent variables were the sugar content (glucose+fructose), and the flavor (indicated by the retronasal perception of volatiles), while the dependent variable was the perceived sweetness.
# [3] = test system: perceived sweetness of tomato fruit (consumer panel); settings: analysis of a volatile subset (Tieman 2012); cited from earlier work
# [4] = test system: perceived sourness of tomato fruit (consumer panel); assay: Tomato consumer taste panel: sourness intensity versus fruit chemical content; assay type: in vivo, human; settings: volatile-induced sourness independent of citric acid
# Experimental: Sensory analysis. Fully ripe fruit were harvested, and used for taste panels. A random subset of fruit was used for biochemical analysis. Three biological replicates, each consisting of 2-20 fruit (depending on fruit size), were assayed for each variety. A group of 170 tomato consumers (64 male, 106 female) were recruited to evaluate all the varieties. Panelists were between the ages of 18 and 78 with a median age of 22. Panelists self-classified themselves as 101 White/Caucasian, 14 Black/African-American, 32 Asian/Pacific and […]. An average of 85 (range of 66-95) of these panelists evaluated between 4-6 varieties in a session. All panelists went through a training session to familiarize them with the scaling and procedures. Tomatoes were sliced into wedges (or in halves for grape/cherry types) and each panelist was given two pieces for evaluation. Panelists took a bite of each sample, chewed and swallowed it, and rated overall liking and liking for texture. They then rated the perceived intensities of sweetness, sourness, saltiness, umami sensation, bitterness and overall tomato flavor. They were free to take as many bites as necessary to complete the assessments. They were instructed to take a bite of an unsalted cracker and a sip of water between samples. Samples were presented to the panelists in a randomized order. Hedonic ratings used the hedonic gLMS. […]
smiles,measurement,setting,value
CCC(C)C=O (centres unmarked) [2-methylbutanal],association with flavor intensity after accounting for fructose,[1]; after accounting for fructose,independently significant after accounting for fructose
same,association with flavor intensity,[1]; univariate models,associated with flavor intensity in univariate models
same,association with sweetness after accounting for fructose,[2]; after accounting for fructose,independent predictors of sweetness after accounting for fructose
same,correlation with sweetness,[2]; direction of correlation,negatively correlated with sweetness
same,contribution to perceived sweetness,[2]; multiple regression analysis using the volatiles,inhibitory effect
same,association with sweetness,[2]; univariate models,showed evidence for association with sweetness in univariate models
same,enhancing sweetness intensity independent of fructose,[3],enhancing sweetness intensity independent of fructose
same,contribution to sourness,[4],contributed to this sourness

# From patent publication US20170119034A1, “COMPOSITIONS AND METHODS FOR MODIFYING PERCEPTION OF SWEET TASTE” (University of Florida Research Foundation, Inc., priority 2012, published 2017)
